These are literature values, as cited in EP1757570A1, “Process for obtaining a purified hydrofluoroalkane with 2 carbon atoms” (Solvay SA, priority 2005, dated 2007).

Read-outs that look alike come from different tables or passages of the source.

For `CC(C)(C#N)N=NC(C)(C)C#N` [AIBN, 2,2'-azobis(isobutyronitrile)], the Half life (65 °C) is 10 h, the Half life (82 °C) was 1 h and the Half life (120 °C) was 0.017 h.
Consider `O=C(OOC(=O)c1ccccc1)c1ccccc1` [DBP, dibenzoylperoxide], for which the Half life (73 °C, in solution in benzene) is 10 h; the Half life (92 °C, in solution in benzene) is 1 h; the Half life (131 °C, in solution in benzene) is 0.017 h.
